Series [1] has as its system HL 60 MX2 (MDR). Briefly: Proliferation test, HL 60 MX2 (MDR) cells. Format: cell-based. The conditions noted are these: Homo sapiens, HL60/MX2; linear regression of survival percentage. The procedure:
(§1) Cell lines: Human prostate carcinoma (PC-3), human colon carcinoma (HT-29), murine melanoma (B-16) and its drug resistant subclone (B-16 MDR), mouse fibroblasts (3T3), myeloid leukemia (HL 60) and its drug resistant subclone (HL 60 MX2), endometrium cell line (MES SA) and its drug resistant subclone (MES DX5), jurkat T lymphoma and monocyte leukemia (U-937), were used in this study.
(§2) Proliferation of cancer and normal cells: Proliferation was measured by neutral red assay or by a fluorometric assay quantitating DNA content. In the neutral red assay, the neutral red is absorbed by lysosomes, thus causing coloring of living cells. Quantitative analysis is performed by colorimetric assay (ELISA reader at 550 nm). In the fluorometric assay, alamar blue is used as a redox indicator. Alamar blue fluorescence was measured at an excitation wavelength of 544 nm and an emission wavelength of […] (FLUOstar BMG Lab Technologies, Offenburg, Germany).
(§3) The cells were sub-cultured and the tested compounds were added thereto in increasing concentrations. The IC50 values were determined by linear regression of the survival percentage of the cells.

In series [2] the test system is HL 60. Briefly: Proliferation test, HL 60 cells. The class given is cell-based. The conditions noted are these: Homo sapiens, linear regression of survival percentage. Here is the method:
as §1, §2, §3

The subject of series [3] is rats. Briefly: D-Amphetamine-induced hyperactivity in rats. The conditions noted are these: GABA alone, 5 mg/kg i.p. (FIGS. 22-25). Format: in vivo, rat. Here is the method:
D-Amphetamine-induced hyperactivity in rats: The efficacy of the chemical conjugates of the present invention was studied using the D-amphetamine-induced hyperactivity and motility model, which is known as one of the most established animal models for schizophrenia.
Naïve Wistar male rats were placed in individual boxes. In each experiment 4 rats were studied. Perphenazine or equimolar doses of its chemical conjugate AN-168 were administered intraperitoneally (ip) to the rats 30 minutes prior to intraperitoneal administration of amphetamine (2.5 mg/kg), or 90 minutes prior to oral administration of amphetamine (2.5 mg/kg). The animals locomotor activity was assessed using two parameters: climbing attempts of the animal on the barrel walls (as big movements) and head movement of the animal (as small movements). Assessment was recorded every 15 minutes for two hours. Each animal was tested at each time point for 120 seconds.
The climbing behavior of the rats in each group was measured as described hereinabove.

Series [4] deals with MES SA. The experiment in a line: Proliferation test, MES SA cells. Format: cell-based. The note with it: Homo sapiens, linear regression of survival percentage. The procedure: as §1, §2, §3
Series [5] in a line: Stability upon prolonged storage (NMR). The class given is physicochemical. The note with it: about 3 months storage; NMR spectroscopy.
In series [6] the test system is U-937. Briefly: Proliferation test, U-937 cells. The class given is cell-based. The conditions noted are these: Homo sapiens, linear regression of survival percentage. Here is the method:
as §1, §2, §3

Series [7] relates to rats. Briefly: Catalepsy in rats, “wall” test. The note with it: i.p.; for time course of catalepsy: over a period of 7 hours (FIGS. 4a, 4b); for induced catalepsy, SAR studies: compared with perphenazine (FIG. 2).
Method: (§4) Animals: Young adult male rats (150-230 grams) were purchased from Harlan (Israel). Animals were divided 2-5/cage and housed in controlled conditions in the animal room for a week prior to the experiments. The experiments were conducted with naive animals, in a double blind procedure. In each experiment various treatment groups (about 5-10 animals each) were tested.
(§5) Catalepsy in rats: The manifestation of the extrapyramidal adverse effects induced by typical neuroleptics was evaluated by the appearance of stereotypic cataleptic behavior in rats following the neuroleptic treatment. Catalepsy was determined by two methods: (i) by measuring the time it took an animal hanging on a cage wall to move its hind legs and reach a flat surface (the “wall” test); and (ii) rats were placed on a flat surface with their anterior limbs leaning on a flat bar (5.5 cm height) resembling a piano playing position. Catalepsy was determined by the time it took an animal to descend and reach the flat surface (the “piano” test). The maximum time of follow up was 2 minutes and these measurements were performed hourly and individually for each animal. These tests provide an assessment of central dopamine (DA) blocking activity and are acceptable criteria for extrapyramidal symptoms induced by anti-psychotic drugs [10].
(§6) A control animals group was treated with the vehicle (lactic acid) only.
Series [8] has as its system prolactin. Briefly: Prolactin blood level in rats (enzyme immunometric assay). The conditions noted are these: i.p.; measured at 0, 60 and 120 min after treatment. Format: in vivo, rat. An excerpt:
Prolactin secretion: Typical neuroleptics induce hyperprolactinemia, which is frequently associated with gallactorehea and impaired gonadal and sexual function. The measurement of the circulatory plasma prolactin level was therefore used as a sensitive biochemical marker for the psychotropic activity of the known neuroleptics and the chemical conjugates of the present invention, following intraperitoneal or oral administration thereof. Thus, blood was collected from the punctured eye orbital of rats under ether anesthesia and the assay was performed using Millennia, rat prolactin enzyme immunometric assay-kit (DPC, USA).

Series [9] has as its system rats. Briefly: Behavioral criteria: sedation and mobility score in rats. The note with it: i.p., 5 mg/kg perphenazine, 7.5 mg/kg fluphenazine or equimolar conjugate, score 0-3.
Method: The effect of the administration of the tested compound on animals behavior was measured by evaluating the degree of animal sedation and mobility following the treatment described hereinabove, using a score of from 0 to 3. A score of 0 represents active and mobile animals, 1 represents calm and mobile animals, 2 represents calm and immobile animals and 3 represents completely ataxic and non-alert animals.
In series [10] the test system is MES SA DX5 (MDR). Briefly: Proliferation test, MES SA DX5 (MDR) cells. The conditions noted are these: Homo sapiens, linear regression of survival percentage. Format: cell-based. Here is the method: as §1, §2, §3
Series [11] has as its system Jurkat T lymphoma cells. The experiment in a line: Proliferation / viability test, Jurkat T lymphoma cells. The class given is cell-based. The note with it: Homo sapiens, linear regression of survival percentage, read-out: IC50, JURKAT. The procedure: as §1, §2, §3
The test system of series [12] is C6 rat glioma cells. The experiment in a line: DNA fragmentation in C6 rat glioma cells (propidium iodide flow cytometry). The class given is cell-based. The note with it: Cisplatin 30 μM; perphenazine 25 and 50 μM; AN 168 25, 50 μM (FIG. 18). The procedure:
Apoptosis and DNA fragmentation: Fragmentation of cell nuclei was studied by flow cytometric analysis of propidium iodide-stained cells. This analysis was performed using a FACScan (Becton Dickinson, Mountain View, Calif.) equipped with an argon ion laser adjusted to an excitation wavelength of 480 nm and with a Doublet Discrimination Module (DDM). Lysis II (Becton Dickinson) software was used for data acquisition. Apoptotic nuclear changes were evaluated according to the criteria of Nicolletti et al..
The DNA fragmentation was determined by the propidium iodide flow cytometric method described hereinabove.
On the technique in general: In flow cytometry, cells or beads pass a laser one at a time.

For series [13], the system named is C6 rat glioma cells. Briefly: Chemosensitization in C6 rat glioma cells. The class given is cell-based. The conditions noted are these: Cisplatin 5-50 μM, neutral red (FIG. 17). The procedure: Chemosensitization: The chemosensitizing effect of perphenazine and its chemical conjugate AN 168 was measured in vitro. Various concentrations of perphenazine or AN 168 were co-administered together with a chemotherapeutic agent to either C6 rat glioma cells or to Jurkat T lymphoma cells. Cells viability and/or DNA fragmentation following treatment with either the chemotherapeutic agent, perphenazine, AN 168, a combination of the chemotherapeutic agent and perphenazine or a combination of a chemotherapeutic agent with AN 168 were measured as described hereinabove.

For series [14], the system named is normal and transformed cells. Briefly: Proliferation tests, summary over the tested cell lines. Format: cell-based. The note with it: read-out: IC50 range, anti-proliferative activity. Here is the method: as §2, §3
In series [15] the test system is 3T3. Briefly: Proliferation test, 3T3 fibroblasts. Format: cell-based. The note with it: Mus musculus, NIH3T3; linear regression of survival percentage. The procedure: as §1, §2, §3
In series [16] the test system is HT-29. Briefly: Proliferation test, HT-29 cells. The conditions noted are these: Homo sapiens, linear regression of survival percentage. Format: cell-based. The procedure:
as §1, §2, §3

For series [17], the system named is rats. The note with it: male, rat, in vivo, ip.
Method: as §4, §5, §6
Series [18] has as its system B16 MDR. Briefly: Proliferation test, B16 MDR cells. Format: cell-based, murine. The conditions noted are these: Mus musculus; linear regression of survival percentage. The procedure:
as §1, §2, §3

The subject of series [19] is Normal rat fibroblasts. Briefly: Proliferation test, normal rat fibroblasts. The conditions noted are these: Fibroblast, linear regression of survival percentage. Format: cell-based. Here is the method: The primary cultures of rat fibroblasts were obtained from neonatal rats using known procedures.
as §2, §3

The test system of series [20] is PC-3. Briefly: Proliferation test, PC-3 cells. Format: cell-based. The note with it: Homo sapiens, linear regression of survival percentage. Here is the method:
as §1, §2, §3

For series [21], the system named is B16. Briefly: Proliferation test, B16 melanoma cells. The note with it: Mus musculus, B16; linear regression of survival percentage. The class given is cell-based, murine. Here is the method: as §1, §2, §3
Setting [22] is: 5 mg/kg perphenazine, 7.5 mg/kg fluphenazine, equimolar conjugates, sum 0-420 min, normalized to parent drug (FIG. 3a).
[23] abbreviates: 5 mg/kg perphenazine and equimolar conjugates.

Structures can show the parent of a compound that is named as a salt. Where two headings read alike, the source gives them in different places.

Turning to `CCCCC(=O)OCCN1CCN(CCCN2c3ccccc3Sc3ccc(C(F)(F)F)cc32)CC1` [AN-181, Fluphenazine Valerate], the IC50 is 16.7 µM in series [1] and 14.8 µM in series [2].

In the case of `CCC(=O)OCCN1CCN(CCCN2c3ccccc3Sc3ccc(C(F)(F)F)cc32)CC1` [AN-179, Fluphenazine Propionate], the IC50 in series [1] came to 21.4 µM; in series [2], 18.2 µM.

Consider `NCCCC(=O)O` [GABA, γ-aminobutyric acid, reference compound], for which the “effect on amphetamine-induced climbing and head movement” value in series [3] is recorded as “did not modify the effect of amphetamine”.

`NCCCC(=O)OCCN1CCN(CCCN2c3ccccc3Sc3ccc(C(F)(F)F)cc32)CC1` [AN-187, fluphenazine 4-Aminobutyrate Trihydrochloride] registered an IC50 in series [4] of 14.4 µM. In addition, in series [5], the “stability upon prolonged storage” value was “does not tend to decompose upon a prolonged storage”. In addition, in [1], the IC50 came to 17.1 µM. For the same molecule, inhibition in series [6] was half-maximal at 18.9 µM (IC50). Moreover, the total catalepsy entry in series [7] (setting [22]) is given as “reduced it considerably”. In addition, the “catalepsy at the end of the 7-hours period” value in series [7] (equimolar to 7.5 mg/kg fluphenazine (FIG. 4b)) is reported as “abolished at the end of the 7-hours period”. Moreover, the “time course of catalepsy” value in series [7] is “lower catalepsy”. The “time at which prolactin blood level peaked” value in series [8] came out at 60 min. Further, in [9], the “sedation and mobility score, 30 min” value was found to be 1; the “sedation and mobility score, 60 min” value was found to be 2; the “sedation and mobility score, 90 min” value is 2; the “sedation and mobility score, 120 min” value stood at 2. Also, in series [9], the “sedation and mobility score, 180 min” value is on record as 1; the “sedation and mobility score, 240 min” value is given as 1. This molecule returned an IC50 in [2] of 18.6 µM. The molecule further had an IC50 in [10] of 9.47 µM. The IC50 in series [11] came to 10.3 µM.

With `N.N.[Cl][Pt][Cl]` [Cisplatin, reference compound], the DNA fragmentation result in [12] is “no effect of DNA fragmentation”. Also, the “cells viability, Cisplatin alone” value in series [13] was “completely resistant”.

`O=C(O)CCCc1ccccc1` [PBA, 4-phenylbutyric acid]: the IC50 in series [14] lay in the range of 2000 to 12000 µM.

For the molecule `CCCCC(=O)OCCN1CCN(CCCN2c3ccccc3Sc3ccc(Cl)cc32)CC1` [AN-178, Perphenazine Valerate], the “induced catalepsy, SAR studies” value in series [7] (setting [23]) was “significant reduction of the induced catalepsy”. Also, the IC50 turned out to be 18.6 µM in series [15] and 11.5 µM in [16].

On to `OCCN1CCN(CCCN2c3ccccc3Sc3ccc(C(F)(F)F)cc32)CC1` [Fluphenazine, fluphenazine, reference compound], for which, in [17], the “time course of catalepsy” value is reported as “displayed catalepsy during the measured 7 hours”. In series [8], the “time at which prolactin blood level peaked” value was found to be 60 min.

Regarding `O=C(CCCc1ccccc1)OCCN1CCN(CCCN2c3ccccc3Sc3ccc(Cl)cc32)CC1` [AN-130, Perphenazine 4-Phenylbutyrate], in [7] (5 mg/kg perphenazine and equimolar conjugates, sum of determinations at 0, 60, 120 min (FIG. 1a)), the total catalepsy result is listed as “catalepsy was induced”. Moreover, the IC50 in series [18] came to 58 µM; in [19] it was 41.9 ± 16.8 µM; in series [16] it was 17.3 ± 3.07 µM; in [20], 52.9 ± 28.7 µM; in series [21], 36.5 ± 8.1 µM. Besides, the “time at which prolactin blood level peaked” value in series [8] is 60 min.

As for `CCCC(=O)O` [BA, butyric acid, reference compound], the IC50 in [18] was 8000 ± 546 µM; in series [19] it was 5540 µM; in series [16], 7170 ± 2030 µM; in series [14] it was 1000 to 8000 µM; in series [21], 1300 ± 113 µM.

For `CCC(=O)OCCN1CCN(CCCN2c3ccccc3Sc3ccc(Cl)cc32)CC1` [AN-177, Perphenazine Propionate], the IC50 in [1] is 17.6 µM; in series [15], 24.6 µM; in series [16] it was 25.8 µM; in series [2] it was 15.1 µM. Besides, in [7] (setting [23]), the “induced catalepsy, SAR studies” value was “significant reduction of the induced catalepsy”.

As to `CCCC(=O)OCCN1CCN(CCCN2c3ccccc3Sc3ccc(C(F)(F)F)cc32)CC1` [AN-180, Fluphenazine Butyrate], the IC50 in series [4] came to 12 µM; in series [1], 18.8 µM; in [6], 12.2 µM; in series [2], 19 µM; in [10], 12.7 µM; in [11], 10.4 µM. Besides, the total catalepsy entry in series [7] (setting [22]) was “reduced catalepsy significantly”. Moreover, in series [7], the “time course of catalepsy” value is given as “lower catalepsy”. Further, the “sedation and mobility score, 30 min” value in series [9] was 1. Besides, the “sedation and mobility score, 60 min” value in series [9] amounted to 2. In addition, the “sedation and mobility score, 90 min” value in series [9] was found to be 3. Moreover, the “sedation and mobility score, 120 min” value in series [9] was 2. The “sedation and mobility score, 180 min” value in series [9] is listed as 1. Further, the “sedation and mobility score, 240 min” value in [9] came out at 1.

By IC50 is commonly meant the point on the concentration scale where inhibition reaches its midpoint.

The values are drawn from patent US8168628B2, “Conjugated psychotropic drugs and uses thereof” (Ramot at Tel-Aviv University Ltd., priority 2001, dated 2012).
